{"source": "paper PMC6429214", "about": "“Design, Synthesis and Biological Evaluation of Isoxazole-Based CK1 Inhibitors Modified with Chiral Pyrrolidine Scaffolds” (Molecules, 2019)", "key": {"MCF-7 cells": {"tested_on": "MCF-7 cells", "assay": "MTT cell viability assay MCF-7", "format": "cell-based, human", "conditions": "Homo sapiens, MCF7, 48 h, mean ± SD", "protocol": "The human colon adenocarcinoma cell line HT-29 was grown in McCoy’s 5A medium, whereas MCF7 cells were grown in DMEM medium. All media were supplemented with 10% fetal calf serum (FCS), 100 units/mL penicillin, 100 µg/mL streptomycin and 2 mM glutamine. All cells were grown at 37 °C in a humidified 5% carbon dioxide atmosphere.\nIn order to analyze the effects of selected inhibitors on the cell viability of HT-29 and MCF7 cells, MTT assays were performed. 1 × 10^4 cells/well were seeded in 96-well cell culture plates. After 24 h cells were treated with increasing concentrations of the indicated inhibitor compounds, with untreated and DMSO-treated cells as control. After an incubation period of 48 h, 10 µL of MTT solution (5 mg/mL in PBS) were added and cells were incubated for 4 h. MTT-containing medium was carefully removed and 100 µL acidic isopropanol (0.04 N HCl in isopropanol) per well were added. To dissolve formazan crystals, plates were shaken for 30 min on an orbital shaker in the dark. Finally, dissolved crystals were measured spectrophotometrically at 570 nm. All experiments were performed in triplicate with four technical replicates per assay. Results were normalized considering the mean optical density value of control wells as 100%. GraphPad Prism 6 software (San Diego, CA, USA) was used to calculate EC50 values."}, "CDC42BPB": {"target": "T1, CDC42BPB (Homo sapiens, UniProt Q9Y5S2)", "T1 construct": "purchased ProQinase", "assay": "33PanQinase panel", "format": "biochemical", "conditions": "read-out: Residual Activity (%)", "protocol": "(§1) Figure 5 Dendrogram representation of the selectivity profile of 29d at a concentration of 1 μM in a panel of 320 wild-type kinases (ProQinase, Freiburg, Germany). The residual kinase activity was determined compared to DMSO control. Images were generated using TREEspot Software Tool, DISCOVERX CORPORATION 2010.\n(§2) Figure S1. X-ray crystal structure of intermediate compound 25d (ORTEP drawing with ellipsoids at 30% probability). CCDC 1589043 contains the supplementary crystallographic data for this paper. The data can be obtained free of charge from The Cambridge Crystallographic Data Centre via www.ccdc.cam.ac.uk/structures.\n(§3) Table S1 Data collection, structure refinement and Ramachrandran plot results of protein crystallization of CK1δ in complex with compound 30a and 30b, respectively.\n(§4) Root-mean-square deviations\n(§5) Additionally allowed 2.6 2.2\n(§6) Table S2. Selectivity profile of compound 29d. The inhibitor has been screened at a concentration of 1 µM over a panel of 320 wild-type protein kinases by ProQinase GmbH (Freiburg, Germany) using an activity-based radiometric 33PanQinase® assay. Results are presented as percentage of residual kinase activity relative to […]\n(§7) control. The final DMSO concentration was 1 % in each reaction-mix. Classification of protein kinase families refers to Manning et al. (Manning, G.; Whyte, D. B.; Martinez, R.; Hunter, T.; Sudarsanam, S. The Protein Kinase Complement of the Human Genome. Science 2002, 298, 1912–1934): AGC = containing PKA, PKG, PKC families; […] = containing Cdk, MAPK, GSK3, CLK families; STE = homologs of yeast sterile 7, sterile 11, sterile 20 kinases; TK = tyrosine kinase; TKL = tyrosine kinase-like.\n(§8) Kinase name Kinase family Residual Activity (%)"}, "CDK4/CycD1": {"target": "T2, CDK4/CycD1 (Homo sapiens, UniProt P11802)", "T2 construct": "purchased ProQinase", "assay": "33PanQinase panel", "format": "biochemical", "conditions": "CDK4/CycD1, 1 µM; read-out: Residual Activity (%)", "protocol": "as §1, §2, §3, §4, §5, §6, §7, §8"}, "CLK4": {"target": "T3, CLK4 (Homo sapiens, UniProt Q9HAZ1)", "T3 construct": "purchased ProQinase", "T3 sequence (Q9HAZ1 whole entry)": "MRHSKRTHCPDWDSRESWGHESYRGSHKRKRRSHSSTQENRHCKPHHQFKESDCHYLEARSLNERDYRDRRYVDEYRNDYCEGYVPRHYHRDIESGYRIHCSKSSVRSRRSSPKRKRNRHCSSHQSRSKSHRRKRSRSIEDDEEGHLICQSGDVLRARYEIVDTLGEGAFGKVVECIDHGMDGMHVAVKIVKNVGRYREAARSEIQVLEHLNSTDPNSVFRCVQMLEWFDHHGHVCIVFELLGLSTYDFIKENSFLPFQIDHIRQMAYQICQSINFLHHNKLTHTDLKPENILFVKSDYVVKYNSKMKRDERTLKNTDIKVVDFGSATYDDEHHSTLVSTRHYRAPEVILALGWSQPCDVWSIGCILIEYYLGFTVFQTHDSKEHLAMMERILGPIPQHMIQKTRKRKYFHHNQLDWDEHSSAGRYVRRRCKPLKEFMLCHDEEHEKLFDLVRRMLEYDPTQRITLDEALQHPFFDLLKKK", "assay": "33PanQinase panel", "format": "biochemical", "conditions": "CLK4, 1 µM; read-out: Residual Activity (%)", "protocol": "as §1, §2, §3, §4, §5, §6, §7, §8"}, "COT": {"target": "T4, COT (Homo sapiens, UniProt P41279)", "T4 construct": "purchased ProQinase", "T4 sequence (P41279 whole entry)": "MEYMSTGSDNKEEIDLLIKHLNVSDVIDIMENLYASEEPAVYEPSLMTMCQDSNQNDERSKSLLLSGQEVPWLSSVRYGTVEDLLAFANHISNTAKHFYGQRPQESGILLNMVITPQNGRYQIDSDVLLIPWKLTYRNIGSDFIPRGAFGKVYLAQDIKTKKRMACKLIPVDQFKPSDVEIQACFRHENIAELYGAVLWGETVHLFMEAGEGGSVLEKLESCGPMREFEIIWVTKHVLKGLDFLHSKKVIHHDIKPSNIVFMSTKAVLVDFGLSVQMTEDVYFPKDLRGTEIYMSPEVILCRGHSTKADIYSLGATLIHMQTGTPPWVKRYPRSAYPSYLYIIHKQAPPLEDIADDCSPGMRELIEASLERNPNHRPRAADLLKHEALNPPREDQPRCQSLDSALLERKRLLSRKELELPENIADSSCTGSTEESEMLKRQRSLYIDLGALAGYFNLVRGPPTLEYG", "assay": "33PanQinase panel", "format": "biochemical", "conditions": "read-out: Residual Activity (%)", "protocol": "as §1, §2, §3, §4, §5, §6, §7, §8"}, "EPHB2": {"target": "T5, EPHB2 (Homo sapiens, UniProt P29323)", "T5 construct": "purchased ProQinase", "assay": "33PanQinase panel", "format": "biochemical", "conditions": "EPHB2, 1 µM; read-out: Residual Activity (%)", "protocol": "as §1, §2, §3, §4, §5, §6, §7, §8"}, "CAMKK1": {"target": "T6, CAMKK1 (Homo sapiens, UniProt Q8N5S9)", "T6 construct": "purchased ProQinase", "T6 sequence (Q8N5S9 whole entry)": "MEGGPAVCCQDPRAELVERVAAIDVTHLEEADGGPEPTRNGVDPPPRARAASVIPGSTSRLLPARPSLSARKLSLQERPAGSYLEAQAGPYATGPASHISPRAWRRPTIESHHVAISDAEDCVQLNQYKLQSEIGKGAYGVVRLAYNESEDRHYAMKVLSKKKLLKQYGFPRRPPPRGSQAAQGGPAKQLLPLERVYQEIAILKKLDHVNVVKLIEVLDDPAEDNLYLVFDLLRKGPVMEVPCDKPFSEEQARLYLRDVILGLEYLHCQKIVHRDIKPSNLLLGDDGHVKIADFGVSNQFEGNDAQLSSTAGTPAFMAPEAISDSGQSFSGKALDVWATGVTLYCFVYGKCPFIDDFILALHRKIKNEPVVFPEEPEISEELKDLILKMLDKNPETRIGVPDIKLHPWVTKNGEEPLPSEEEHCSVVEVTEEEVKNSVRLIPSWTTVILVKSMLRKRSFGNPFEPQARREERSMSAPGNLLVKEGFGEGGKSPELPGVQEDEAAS", "assay": "33PanQinase panel", "format": "biochemical", "conditions": "CAMKK1, 1 µM; read-out: Residual Activity (%)", "protocol": "as §1, §2, §3, §4, §5, §6, §7, §8"}, "BUB1B": {"target": "T7, BUB1B (Homo sapiens, UniProt O60566)", "T7 construct": "purchased ProQinase", "assay": "33PanQinase panel", "format": "biochemical", "conditions": "read-out: Residual Activity (%)", "protocol": "as §1, §2, §3, §4, §5, §6, §7, §8"}, "PAK7": {"target": "T8, PAK7 (Homo sapiens, UniProt Q9P286)", "T8 construct": "purchased ProQinase", "assay": "33PanQinase panel", "format": "biochemical", "conditions": "PAK7, 1 µM; read-out: Residual Activity (%)", "protocol": "as §1, §2, §3, §4, §5, §6, §7, §8"}, "EIF2AK2": {"target": "T9, EIF2AK2 (Homo sapiens, UniProt P19525)", "T9 construct": "purchased ProQinase", "assay": "33PanQinase panel", "format": "biochemical", "conditions": "EIF2AK2, 1 µM; read-out: Residual Activity (%)", "protocol": "as §1, §2, §3, §4, §5, §6, §7, §8"}, "TYK2": {"target": "T10, TYK2 (Homo sapiens, UniProt P29597)", "T10 construct": "purchased ProQinase", "T10 sequence (P29597 whole entry)": "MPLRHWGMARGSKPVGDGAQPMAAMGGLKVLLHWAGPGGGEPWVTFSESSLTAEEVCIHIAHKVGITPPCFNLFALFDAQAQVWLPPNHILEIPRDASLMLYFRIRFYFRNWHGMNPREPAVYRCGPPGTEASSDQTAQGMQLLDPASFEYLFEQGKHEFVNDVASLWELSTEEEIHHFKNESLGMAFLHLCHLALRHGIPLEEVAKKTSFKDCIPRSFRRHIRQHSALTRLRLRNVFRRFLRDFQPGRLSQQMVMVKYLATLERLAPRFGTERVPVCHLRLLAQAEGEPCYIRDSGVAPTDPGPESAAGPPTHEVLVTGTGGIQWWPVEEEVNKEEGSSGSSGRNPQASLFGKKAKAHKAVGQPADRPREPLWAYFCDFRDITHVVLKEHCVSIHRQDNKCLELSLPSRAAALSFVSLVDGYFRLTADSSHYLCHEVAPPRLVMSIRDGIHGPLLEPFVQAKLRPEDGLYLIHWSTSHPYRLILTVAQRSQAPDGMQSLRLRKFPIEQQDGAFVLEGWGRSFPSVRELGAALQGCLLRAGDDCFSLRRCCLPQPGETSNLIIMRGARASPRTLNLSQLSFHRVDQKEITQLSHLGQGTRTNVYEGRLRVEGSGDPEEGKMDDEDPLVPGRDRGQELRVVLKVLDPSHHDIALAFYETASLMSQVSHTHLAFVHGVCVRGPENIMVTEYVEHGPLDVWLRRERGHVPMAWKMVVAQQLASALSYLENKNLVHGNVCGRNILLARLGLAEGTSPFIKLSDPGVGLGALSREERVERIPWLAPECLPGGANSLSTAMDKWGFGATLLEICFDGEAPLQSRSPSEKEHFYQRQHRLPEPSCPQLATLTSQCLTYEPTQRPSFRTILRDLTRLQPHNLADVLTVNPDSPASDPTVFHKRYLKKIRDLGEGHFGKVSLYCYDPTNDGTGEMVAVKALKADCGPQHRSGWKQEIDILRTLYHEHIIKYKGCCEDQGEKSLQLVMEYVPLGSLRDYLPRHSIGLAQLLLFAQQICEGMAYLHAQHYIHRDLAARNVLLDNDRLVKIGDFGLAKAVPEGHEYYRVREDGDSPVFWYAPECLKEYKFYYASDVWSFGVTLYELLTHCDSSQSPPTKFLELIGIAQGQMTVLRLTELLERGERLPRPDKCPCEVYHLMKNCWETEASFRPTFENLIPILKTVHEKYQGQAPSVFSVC", "assay": "33PanQinase panel", "format": "biochemical", "conditions": "TYK2, 1 µM; read-out: Residual Activity (%)", "protocol": "as §1, §2, §3, §4, §5, §6, §7, §8"}, "PHKG1": {"target": "T11, PHKG1 (Homo sapiens, UniProt Q16816)", "T11 construct": "purchased ProQinase", "assay": "33PanQinase panel", "format": "biochemical", "conditions": "PHKG1, 1 µM; read-out: Residual Activity (%)", "protocol": "as §1, §2, §3, §4, §5, §6, §7, §8"}, "IKK-alpha": {"target": "T12, IKK-alpha (Homo sapiens, UniProt O15111)", "T12 construct": "purchased ProQinase", "T12 sequence (O15111 whole entry)": "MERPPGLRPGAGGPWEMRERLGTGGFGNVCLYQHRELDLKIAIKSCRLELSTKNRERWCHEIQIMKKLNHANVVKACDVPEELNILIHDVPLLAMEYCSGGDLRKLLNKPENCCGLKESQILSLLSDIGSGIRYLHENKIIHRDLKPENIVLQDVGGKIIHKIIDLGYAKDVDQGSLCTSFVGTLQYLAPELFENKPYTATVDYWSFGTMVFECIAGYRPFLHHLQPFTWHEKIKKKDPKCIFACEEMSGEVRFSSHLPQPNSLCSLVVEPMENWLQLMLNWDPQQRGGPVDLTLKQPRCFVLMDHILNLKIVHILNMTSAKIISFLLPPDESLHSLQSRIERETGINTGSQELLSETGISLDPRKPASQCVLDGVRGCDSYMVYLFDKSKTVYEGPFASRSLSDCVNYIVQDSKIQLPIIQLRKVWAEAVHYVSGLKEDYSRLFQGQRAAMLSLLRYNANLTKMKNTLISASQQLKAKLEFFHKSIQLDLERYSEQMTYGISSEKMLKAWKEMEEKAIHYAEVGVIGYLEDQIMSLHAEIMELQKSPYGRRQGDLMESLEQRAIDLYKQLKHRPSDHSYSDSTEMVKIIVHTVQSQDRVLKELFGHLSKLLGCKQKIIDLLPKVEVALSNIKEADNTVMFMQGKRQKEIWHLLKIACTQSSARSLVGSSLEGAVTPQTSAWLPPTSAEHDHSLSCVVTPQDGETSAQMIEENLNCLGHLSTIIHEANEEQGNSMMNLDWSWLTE", "assay": "33PanQinase panel", "format": "biochemical", "conditions": "read-out: Residual Activity (%)", "protocol": "as §1, §2, §3, §4, §5, §6, §7, §8"}, "PKC-beta2": {"target": "T13, PKC-beta2 (Homo sapiens, UniProt P05771)", "T13 construct": "purchased ProQinase", "T13 sequence (P05771 1-673 isoform P05771-2)": "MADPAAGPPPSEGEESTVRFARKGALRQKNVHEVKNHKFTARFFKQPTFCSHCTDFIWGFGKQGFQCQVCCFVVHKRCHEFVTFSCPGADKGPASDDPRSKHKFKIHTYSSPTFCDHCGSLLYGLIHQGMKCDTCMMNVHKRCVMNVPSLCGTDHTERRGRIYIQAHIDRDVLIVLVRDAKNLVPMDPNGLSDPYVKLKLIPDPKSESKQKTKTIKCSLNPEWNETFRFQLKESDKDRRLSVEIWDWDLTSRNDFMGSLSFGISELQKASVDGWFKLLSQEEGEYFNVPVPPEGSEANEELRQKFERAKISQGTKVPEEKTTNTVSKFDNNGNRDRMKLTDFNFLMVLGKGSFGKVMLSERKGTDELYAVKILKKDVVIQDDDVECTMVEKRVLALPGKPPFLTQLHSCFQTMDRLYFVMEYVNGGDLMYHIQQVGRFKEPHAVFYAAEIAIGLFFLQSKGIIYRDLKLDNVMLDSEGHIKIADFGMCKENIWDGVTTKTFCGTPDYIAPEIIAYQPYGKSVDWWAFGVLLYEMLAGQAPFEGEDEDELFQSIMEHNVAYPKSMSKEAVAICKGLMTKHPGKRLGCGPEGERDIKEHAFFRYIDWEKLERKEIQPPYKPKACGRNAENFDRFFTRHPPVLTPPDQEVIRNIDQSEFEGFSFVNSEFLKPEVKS", "assay": "33PanQinase panel", "format": "biochemical", "conditions": "PKC-beta2, 1 µM; read-out: Residual Activity (%)", "protocol": "as §1, §2, §3, §4, §5, §6, §7, §8"}, "MEKK3": {"target": "T14, MEKK3 (Homo sapiens, UniProt Q99759)", "T14 construct": "purchased ProQinase", "assay": "33PanQinase panel", "format": "biochemical", "conditions": "MEKK3, 1 µM; read-out: Residual Activity (%)", "protocol": "as §1, §2, §3, §4, §5, §6, §7, §8"}, "DMPK": {"target": "T15, DMPK (Homo sapiens, UniProt Q09013)", "T15 construct": "purchased ProQinase", "T15 sequence (Q09013 whole entry)": "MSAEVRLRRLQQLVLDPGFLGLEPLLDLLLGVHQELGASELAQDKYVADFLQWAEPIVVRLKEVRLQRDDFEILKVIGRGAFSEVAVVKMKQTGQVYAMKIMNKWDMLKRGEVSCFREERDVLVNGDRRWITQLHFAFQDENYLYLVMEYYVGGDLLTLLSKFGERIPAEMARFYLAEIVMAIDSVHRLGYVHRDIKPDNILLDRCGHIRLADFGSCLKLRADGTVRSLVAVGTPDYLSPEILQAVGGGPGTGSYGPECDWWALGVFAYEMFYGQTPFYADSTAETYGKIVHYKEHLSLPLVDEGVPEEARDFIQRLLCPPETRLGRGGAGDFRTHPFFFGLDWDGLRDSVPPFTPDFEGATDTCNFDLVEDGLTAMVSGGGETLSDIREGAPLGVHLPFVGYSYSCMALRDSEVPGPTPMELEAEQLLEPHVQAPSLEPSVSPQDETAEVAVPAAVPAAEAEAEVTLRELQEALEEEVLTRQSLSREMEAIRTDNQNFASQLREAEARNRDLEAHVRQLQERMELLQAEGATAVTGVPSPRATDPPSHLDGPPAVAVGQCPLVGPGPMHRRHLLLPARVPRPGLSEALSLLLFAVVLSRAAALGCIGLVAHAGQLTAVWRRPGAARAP", "assay": "33PanQinase panel", "format": "biochemical", "conditions": "read-out: Residual Activity (%)", "protocol": "as §1, §2, §3, §4, §5, §6, §7, §8"}, "TSF1": {"target": "T16, TSF1 (Homo sapiens, UniProt O75716)", "T16 construct": "purchased ProQinase", "T16 sequence (O75716 whole entry)": "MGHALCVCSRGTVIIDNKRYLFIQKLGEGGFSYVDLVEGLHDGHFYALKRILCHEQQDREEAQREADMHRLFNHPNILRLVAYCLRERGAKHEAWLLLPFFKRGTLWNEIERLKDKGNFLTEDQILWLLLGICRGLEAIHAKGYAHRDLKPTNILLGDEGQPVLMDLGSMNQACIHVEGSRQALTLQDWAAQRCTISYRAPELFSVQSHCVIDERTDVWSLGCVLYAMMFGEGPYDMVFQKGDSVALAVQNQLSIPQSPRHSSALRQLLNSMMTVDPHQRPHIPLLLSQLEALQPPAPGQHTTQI", "assay": "33PanQinase panel", "format": "biochemical", "conditions": "TSF1, 1 µM; read-out: Residual Activity (%)", "protocol": "as §1, §2, §3, §4, §5, §6, §7, §8"}, "PKC-alpha": {"target": "T17, PKC-alpha (Homo sapiens, UniProt P17252)", "T17 construct": "purchased ProQinase", "assay": "33PanQinase panel", "format": "biochemical", "conditions": "read-out: Residual Activity (%)", "protocol": "as §1, §2, §3, §4, §5, §6, §7, §8"}, "SIK2": {"target": "T18, SIK2 (Homo sapiens, UniProt Q9H0K1)", "T18 construct": "purchased ProQinase", "assay": "33PanQinase panel", "format": "biochemical", "conditions": "SIK2, 1 µM; read-out: Residual Activity (%)", "protocol": "as §1, §2, §3, §4, §5, §6, §7, §8"}, "SRC (GST-HIS-tag)": {"target": "T19, SRC (GST-HIS-tag) (Homo sapiens, UniProt P12931)", "T19 construct": "purchased ProQinase", "assay": "33PanQinase panel", "format": "biochemical", "conditions": "read-out: Residual Activity (%)", "protocol": "as §1, §2, §3, §4, §5, §6, §7, §8"}}}
{"smiles": "COc1ccc(-c2cc(C(=O)Nc3cc(-c4c(-c5ccc(F)cc5)noc4C(C)C)ccn3)n(CC3NCC(O)C3O)c2)cc1", "note": "(centres unmarked) [29d]", "values": [{"measurement": "viability at 5 µM", "setting": "MCF-7 cells; 5 µM", "value": "100 ± 16", "unit": "%"}, {"measurement": "viability at 10 µM", "setting": "MCF-7 cells; 10 µM", "value": "76 ± 19", "unit": "%"}, {"measurement": "viability at 20 µM", "setting": "MCF-7 cells; 20 µM", "value": "5.6 ± 1.5", "unit": "%"}, {"measurement": "EC50", "setting": "MCF-7 cells", "value": "10 ± 2", "unit": "µM"}, {"measurement": "remaining activity at 1 µM", "setting": "CDC42BPB", "value": 86, "unit": "%"}, {"measurement": "remaining activity at 1 µM", "setting": "CDK4/CycD1", "value": 108, "unit": "%"}, {"measurement": "remaining activity at 1 µM", "setting": "CLK4", "value": 104, "unit": "%"}, {"measurement": "remaining activity at 1 µM", "setting": "COT", "value": 89, "unit": "%"}, {"measurement": "remaining activity at 1 µM", "setting": "EPHB2", "value": 88, "unit": "%"}, {"measurement": "remaining activity at 1 µM", "setting": "CAMKK1", "value": 89, "unit": "%"}, {"measurement": "remaining activity at 1 µM", "setting": "BUB1B", "value": 90, "unit": "%"}, {"measurement": "remaining activity at 1 µM", "setting": "PAK7", "value": 97, "unit": "%"}, {"measurement": "remaining activity at 1 µM", "setting": "EIF2AK2", "value": 132, "unit": "%"}, {"measurement": "remaining activity at 1 µM", "setting": "TYK2", "value": 85, "unit": "%"}, {"measurement": "remaining activity at 1 µM", "setting": "PHKG1", "value": 90, "unit": "%"}, {"measurement": "remaining activity at 1 µM", "setting": "IKK-alpha", "value": 98, "unit": "%"}, {"measurement": "remaining activity at 1 µM", "setting": "PKC-beta2", "value": 118, "unit": "%"}, {"measurement": "remaining activity at 1 µM", "setting": "MEKK3", "value": 104, "unit": "%"}, {"measurement": "remaining activity at 1 µM", "setting": "DMPK", "value": 93, "unit": "%"}, {"measurement": "remaining activity at 1 µM", "setting": "TSF1", "value": 86, "unit": "%"}, {"measurement": "remaining activity at 1 µM", "setting": "PKC-alpha", "value": 107, "unit": "%"}, {"measurement": "remaining activity at 1 µM", "setting": "SIK2", "value": 98, "unit": "%"}, {"measurement": "remaining activity at 1 µM", "setting": "SRC (GST-HIS-tag)", "value": 125, "unit": "%"}]}
